Results taken from patent US12472140B2, “Composition and method for transdermal delivery of cannabidiol (CBD) and tetrahydrocannabinol (THC)” (Ovation Science Inc., priority 2020, dated 2025).

Assays:
Solubility = conditions: polyvinylpyrrolidone polymers with C16, C20, C30 side chains
[1] = cited from earlier work
[2] = Six-hour Franz Cell study of skin penetration by CBD and THC; conditions: for penetration of CBD relative to THC: at 6 hours
[3] = Release of CBD and THC from the composition, effect of adding surfactant; format: physicochemical; conditions: for ratio of release of CBD and THC: numerically THC/CBD
From the text: Addition of surfactant can assist in release of CBD and THC from the composition.

[4] = oral doses of 15-20 mg; cited from earlier work
[5] = Example 1, penetrant increased from 1% to 3%
[6] = Example 3, terpene penetrant increased from 1% to 3%

| SMILES | solubility in hydrophobic polymer delivery system / polymer complexes (Solubility) | solubility in aqueous buffers [1] | solubility in organic solvents [1] | penetration of CBD relative to THC ([2]; Example 1, 1:1 CBD:THC formulation) [times] | penetration [2, 5] [%] | penetration of CBD relative to THC ([2]; Example 3, 1:1 CBD:THC formulation) [times] | actual (penetration) weight ratio of CBD:THC ([2]; Example 3, formulated weight ratio 1:1 CBD:THC) | penetration [2, 6] [%] | release from the composition ([3]; after addition of surfactant) [%] | release from the composition ([3]; before addition of surfactant) [%] | effect on cancer pain [4] | ratio of release of CBD and THC ([3]; after addition of surfactant) | ratio of release of CBD and THC ([3]; before addition of surfactant) |
| --- | --- | --- | --- | --- | --- | --- | --- | --- | --- | --- | --- | --- | --- |
| C=C(C)[C@@H]1CCC(C)=C[C@H]1c1c(O)cc(CCCCC)cc1O [CBD, cannabidiol] | readily soluble | sparingly soluble | readily soluble | ~4 | 5.8 | ~2 | 1.98 | 5.8 | 30.2 | 4.3 |  |  |  |
| CCCCCc1cc(O)c2c(c1)OC(C)(C)[C@H]1CCC(C)=C[C@H]21 [THC, Δ^9-tetrahydrocannabinol] | readily soluble | sparingly soluble | readily soluble |  | 3.2 |  |  | 3.2 | 21.7 | 3 | decreased cancer pain comparable to 120 mg of codeine | 0.72 | 0.7 |
